Laboratory results published in patent publication US10233193B2, “Fused tricyclic heterocyclic compounds useful for treating HIV infection” (MERCK SHARP & DOHME CORP., priority 2015, dated 2019).
Like-named read-outs stand apart in the source and are kept apart here.

Test system: HIV-1 (NL4-3 strain)
Assay: Assay for inhibition of HIV replication (MT4-gag-GFP reporter cell line, wild type cell assay, Viking)
Assay type: cell-based
Details: IP or IC50 from 4-parameter dose response curve
Procedure: This assay is a kinetic assay that employs a reporter cell line (MT4-gag-GFP) to quantify the number of new cells infected in each round of replication.
MT4-GFP cells (250,000 cells/ml) were bulk-infected with HIV-1 (NL4-3 strain) at low multiplicity of infection (MOI) in RPMI+10% FBS for 24 hours. Cells were then washed once in RPMI+10% FBS and resuspended in RPMI+0% or 10% or 100% normal human serum (NHS). Test compounds were serial-diluted in DMSO on ECHO. The infected MT4-GFP cells were added to a 384-well poly-D-lysine coated black plate with clear bottom in which the diluted test compounds were placed. The cells were seeded at 8,000 cells per well and the final DMSO concentration was 0.4%. The infected cells (Green GFP cells) were quantified at both 24 and 48 hours post incubation using Acumen eX3. Viral reproductive ratio (R0) was determined using the number of infected cells at 48 hours divided by the number of infected cells at 24 hours. Percent viral growth inhibition was calculated by [1−(R−Rtripledrug)/(RDMSO−Rtripledrug)]*100. Compound potency IP or IC50 was determined by a 4-parameter dose response curve analysis.
Illustrative compounds of the present invention were tested using this assay protocol and results are presented below in Table A.

Q: With `CN1CC[C@@H]2C1C(C)(C)C(=O)c1c(O)c(=O)c(C(=O)NCc3ccc(F)cc3F)cn12` (some centres unmarked) [Compound 9] as the compound, how does the IC50 (infected MT4-GFP cells in 100% normal human serum, read-out: WILD TYPE CELL ASSAY Viking IP (100% NHS)) read?
A: The IC50 was 174 nM.

Q: What about the IC50 (infected MT4-GFP cells in RPMI + 0% normal human serum, read-out: WILD TYPE CELL ASSAY Viking IP (0% NHS)) of the same compound?
A: The IC50 was 5.3 nM.
